“Also recorded” adds a separate entry of the source. Where a SMILES comes first, the peptide text is derived from it. Where no end group is shown, it is not given here. The star is where a group is joined. Biotin = O=C1N[C@H]2[C@H](CS[C@H]2CCCCC(=O)*)N1
Key:
[1] = system: panel of host proteins; assay: Microtitre binding assays, panel of host proteins; parameters: species or system human; details: 15 µg/ml of C-terminal P1 fragments bound to wells
Description: (§1) Human proteins used for ELISA include: plasma fibrinogen (Code: F3879), plasma fibronectin (Code: 11051407001), Glu-plasminogen (Code: P7999), vitronectin (Code: SRP3186), laminin (Code: L6274), and lactoferrin (Code: L1294) which were all supplied by Sigma.
(§2) Binding affinity measured by ELISA was performed as described previously. Recombinant protein RP15 was produced as described[55] and both C-terminal peptides were synthesised by Chempeptide Limited (China). P1-30 (^1597[…]^1627) without any tags, but P1-15 (^1613PGAPKPPVQPPKKPA^1627) was sequenced with an N-terminal biotin tag.
(§3) 15 µg/ml of C-terminal P1 fragments were bound to wells and incubated with different host proteins. Wells were then incubated with different antiserum raised against the different host proteins at the following dilutions (all from Sigma): anti-fibrinogen 1:3000, anti-fibronectin 1:1000, anti-plasminogen: 1:2500, anti-vitronectin 1:5000, anti-laminin 1:750, and anti-lactoferrin 1:5,000. These incubations were followed by incubations with anti-rabbit IgG (Dako) or anti-goat IgG (both 1:2,000). Detection was measured by adding Tetramethylbenzidine (Sigma) followed by 1 M HCl, and absorbance was measured at 450 nm (620 nm as reference).

[2] = system: glyceraldehyde-3-phosphate dehydrogenase; assay: Affinity chromatography of A549 lysate on P1-15, glyceraldehyde-3-phosphate dehydrogenase; type: binding, human; details: slice 3; biotinylated P1-15 on avidin agarose vs uncoupled control; native A549 cell lysate
Description: (§4) The C-terminal sequence of P1 (P1-15) was synthesised with an N-terminal biotin tag by Chempeptide Limited (China). Affinity chromatography was performed similar to the section above. In brief, 1 mg of the peptide was added to Avidin Agarose beads for 16 h at 4 °C. The beads were washed four times (5 ml per wash) with PBS before being incubated with native A549 cell lysates (harvested in 1% w/v C7BzO in PBS) for 16 h at 4 °C. Non-binding proteins were washed from the column with four washes (5 ml per wash) of PBS and protein complexes with an affinity to the peptide were eluted from the column with 7 M urea, 2 M thiourea, 40 mM Tris-HCl, and 1% (w/v) C7BzO (4 times of 2 ml). Eluents were concentrated with a Macrosep® 3 kDa cutoff centrifugal device (Pall), precipitated with acetone, and separated by 1D-SDS PAGE. The whole lane was divided into sections, in-gel digested with trypsin, and analysed by LC-MS/MS as described above.

[3] = system: lactoferrin; assay: Microtitre plate binding assay (ELISA), lactoferrin; parameters: species or system human; details: 15 µg/ml of C-terminal P1 fragments bound to wells, absorbance 450 nm (620 nm reference), eight replicates, P1-15 with N-terminal biotin tag
Description: as §1, §2, §3

[4] = system: cytokeratin 7; assay: Affinity chromatography of A549 lysate on P1-15, cytokeratin 7; type: binding, human; details: biotinylated P1-15 on avidin agarose vs uncoupled avidin agarose control, native A549 cell lysate
Description: as §4

[5] = system: laminin; assay: Microtitre plate binding assay (ELISA), laminin; parameters: species or system human; details: 15 µg/ml of C-terminal P1 fragments bound to wells, absorbance 450 nm (620 nm reference), eight replicates, P1-15 with N-terminal biotin tag
Description: as §1, §2, §3

[6] = system: vitronectin; assay: Microtitre plate binding assay (ELISA), vitronectin; parameters: species or system human; details: 15 µg/ml of C-terminal P1 fragments bound to wells, absorbance 450 nm (620 nm reference), eight replicates, P1-15 with N-terminal biotin tag
Description: as §1, §2, §3

[7] = system: vimentin; assay: Affinity chromatography of A549 lysate on P1-15, vimentin; type: binding, human; details: biotinylated P1-15 on avidin agarose vs uncoupled avidin agarose control, native A549 cell lysate
Description: as §4

[8] = system: plasma fibronectin; assay: Microtitre plate binding assay (ELISA), fibronectin; parameters: species or system human; details: 15 µg/ml of C-terminal P1 fragments bound to wells, absorbance 450 nm (620 nm reference), eight replicates, P1-15 with N-terminal biotin tag
Description: as §1, §2, §3

[9] = system: cytokeratin 8; assay: Affinity chromatography of A549 lysate on P1-15, cytokeratin 8; type: binding, human; details: biotinylated P1-15 on avidin agarose vs uncoupled avidin agarose control, native A549 cell lysate
Description: as §4

[10] = system: cytokeratin 18; assay: Affinity chromatography of A549 lysate on P1-15, cytokeratin 18; type: binding, human; details: biotinylated P1-15 on avidin agarose vs uncoupled avidin agarose control, native A549 cell lysate
Description: as §4

[11] = system: plasma fibrinogen; assay: Microtitre plate binding assay (ELISA), fibrinogen; parameters: species or system human; details: 15 µg/ml of C-terminal P1 fragments bound to wells, absorbance 450 nm (620 nm reference), eight replicates, P1-15 with N-terminal biotin tag
Description: as §1, §2, §3

[12] = system: Glu-plasminogen; assay: Microtitre plate binding assay (ELISA), plasminogen; parameters: species or system human; details: 15 µg/ml of C-terminal P1 fragments bound to wells, absorbance 450 nm (620 nm reference), eight replicates, P1-15 with N-terminal biotin tag
Description: as §1, §2, §3

[13] = parameters: method as in PMID 28894125; details: ref [12]; cited from earlier work
[14] = target: T1, plasminogen (Homo sapiens, UniProt P00747); assay: Microscale thermophoresis, binding to plasminogen
T1 construct: purchased Merck Millipore (Code 528175) or Sigma (Glu-plasminogen, Code P7999); host or cells: human plasma
Description: (§5) Binding affinities to fluorescent labelled host proteins was measured by microscale thermophoresis as described in[72]. Microscale thermophoresis was set to 30 s and samples were scanned with 40%, 60% and 80% MST Power. Dissociation constants were determined from generated dissociation curves with set hot/cold or thermophoresis settings. As a control, a scrambled version of the C-terminal P1 peptide ([…]) was synthesised by Chempeptide Limited (China) without any tags and binding affinities was measured.

[15] = target: T2, fetuin (Bos taurus, UniProt P12763); assay: Microscale thermophoresis, binding to fetuin
T2 construct: purchased Sigma F3004
T2 sequence (P12763 19-359): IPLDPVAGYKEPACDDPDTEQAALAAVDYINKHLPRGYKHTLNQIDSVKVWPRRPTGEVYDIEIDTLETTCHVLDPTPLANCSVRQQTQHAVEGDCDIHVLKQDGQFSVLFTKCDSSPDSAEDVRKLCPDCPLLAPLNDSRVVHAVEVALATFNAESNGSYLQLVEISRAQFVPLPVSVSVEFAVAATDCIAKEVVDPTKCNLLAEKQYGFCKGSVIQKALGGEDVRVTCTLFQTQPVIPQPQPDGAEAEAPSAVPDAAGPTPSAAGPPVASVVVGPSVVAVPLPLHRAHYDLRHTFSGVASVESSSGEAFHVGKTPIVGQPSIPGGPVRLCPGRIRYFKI
Description: as §5

[16] = target: T3, Fetuin, fluorescent labelled (microscale thermophoresis) (bovine, UniProt P12763 19-359, fluorescent label); assay: MST; fluorescent labelled host protein, peptide titrated; thermophoresis 30 s, 40%, 60% and 80% MST power; details: both partners purified
T3 construct: fetuin
T3 sequence (looked up): T2 sequence (P12763 19-359)

[17] = target: T4, Human vitronectin (human, UniProt P04004 20-478); assay: ELISA; 15 µg/ml of C-terminal P1 fragment bound to wells, incubated with host protein at several concentrations; detected with antiserum against the host protein, absorbance at 450 nm; details: both partners purified
T4 construct: vitronectin, human, Sigma SRP3186; source: bought: Sigma (Code SRP3186)

[18] = target: T5, Human lactoferrin (human, UniProt P02788 20-710); assay: as above; details: both partners purified
T5 construct: lactoferrin, human, Sigma L1294; source: bought: Sigma (Code L1294)

[19] = system: A549 human lung cells; assay: Binding to immobilised A549 human lung cells (microtitre plate); type: cell-based; details: 10 µg/ml; detection with antiserum against RP15 (1:100), absorbance 450 nm; eight replicates
Description: Freshly grown A549 cells were immobilised in 96-well microtitre plates as described in[17]. Immobilised A549 cells were incubated with 10 µg/ml of either RP15, P1-30, or P1-15 and binding affinity was measured with antiserum raised against RP15 (1:100) as described above. Absorbance detection at 450 nm is the same as described above.

[20] = listed as 1613PGAPKPPVQPPKKPA^1627

T4 sequence (P04004 20-478): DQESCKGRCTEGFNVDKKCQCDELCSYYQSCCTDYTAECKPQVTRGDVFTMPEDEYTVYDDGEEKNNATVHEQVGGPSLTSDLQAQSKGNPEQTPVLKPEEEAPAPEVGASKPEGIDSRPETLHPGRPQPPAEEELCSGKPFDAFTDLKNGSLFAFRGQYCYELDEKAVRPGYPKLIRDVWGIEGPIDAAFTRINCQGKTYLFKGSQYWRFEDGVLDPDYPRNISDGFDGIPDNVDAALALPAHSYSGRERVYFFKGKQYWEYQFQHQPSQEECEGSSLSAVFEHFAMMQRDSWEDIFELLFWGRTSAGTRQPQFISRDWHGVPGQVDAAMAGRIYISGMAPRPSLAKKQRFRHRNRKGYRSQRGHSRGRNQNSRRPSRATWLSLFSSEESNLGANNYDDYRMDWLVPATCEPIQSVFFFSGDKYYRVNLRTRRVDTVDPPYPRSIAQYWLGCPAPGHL
T5 sequence (P02788 20-710): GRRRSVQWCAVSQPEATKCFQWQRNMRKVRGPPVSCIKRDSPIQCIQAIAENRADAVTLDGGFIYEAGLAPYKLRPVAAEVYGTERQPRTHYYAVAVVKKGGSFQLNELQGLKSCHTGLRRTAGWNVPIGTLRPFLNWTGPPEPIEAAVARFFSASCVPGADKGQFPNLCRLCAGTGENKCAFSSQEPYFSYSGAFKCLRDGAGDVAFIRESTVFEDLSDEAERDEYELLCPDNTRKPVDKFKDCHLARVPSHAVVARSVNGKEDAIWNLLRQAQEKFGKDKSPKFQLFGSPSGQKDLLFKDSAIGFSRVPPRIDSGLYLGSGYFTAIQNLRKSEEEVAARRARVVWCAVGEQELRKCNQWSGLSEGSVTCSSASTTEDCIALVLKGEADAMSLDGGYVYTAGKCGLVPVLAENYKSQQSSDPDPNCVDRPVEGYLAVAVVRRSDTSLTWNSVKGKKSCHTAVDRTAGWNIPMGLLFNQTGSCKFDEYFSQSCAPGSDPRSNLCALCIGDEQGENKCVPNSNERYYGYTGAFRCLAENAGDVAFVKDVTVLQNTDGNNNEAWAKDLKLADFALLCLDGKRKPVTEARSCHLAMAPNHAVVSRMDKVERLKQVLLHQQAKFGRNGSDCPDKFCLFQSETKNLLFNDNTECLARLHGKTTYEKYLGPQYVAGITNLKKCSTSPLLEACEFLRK

Molecule: PGAPKPPVQPPKKPA [P1-15, C-terminal 15 amino acids of P1, synthesised chemically, N-terminal biotin tag]
- binding to panel of host molecules [1]: bind a range of host molecules in a dose dependent manner
- recovery of glyceraldehyde-3-phosphate dehydrogenase [2]: also identified in the eluents from the control
- binding to lactoferrin [3]: failed to bind laminin, lactoferrin
- selective recovery / binding, cytokeratin 7 [4]: selectively recovered
- selective recovery / binding, cytokeratin 7 [4, 20]: selectively bound
- binding to laminin [5]: failed to bind laminin
- binding to vitronectin [6]: also bound to vitronectin
- selective recovery / binding, vimentin [7]: selectively recovered
- selective recovery / binding, vimentin [7, 20]: selectively bound
- binding to fibronectin [8]: failed to bind laminin, lactoferrin, fibronectin
- selective recovery / binding, cytokeratin 8 [9]: selectively recovered
- selective recovery / binding, cytokeratin 8 [9, 20]: selectively bound
- selective recovery / binding, cytokeratin 18 [10]: selectively recovered
- selective recovery / binding, cytokeratin 18 [10, 20]: selectively bound
- binding to fibrinogen [11]: failed to bind laminin, lactoferrin, fibronectin, and fibrinogen
- binding to plasminogen [12]: only bound plasminogen in a dose dependent manner; also recorded: bound plasminogen in a dose-responsive manner

Molecule: elongation factor Tu [Ef-Tu]
- affinity to heparin [13]: strong affinity to heparin

Molecule: CC(C)[C@H](NC(=O)[C@@H]1CCCN1C(=O)[C@@H]1CCCN1C(=O)[C@H](CCCCN)NC(=O)[C@@H]1CCCN1C(=O)[C@H](C)NC(=O)CNC(=O)[C@@H]1CCCN1C(=O)[C@H](CCCCN)NC(=O)[C@@H]1CCCN1C(=O)[C@@H]1CCCN1C(=O)[C@@H](NC(=O)[C@@H]1CCCN1C(=O)[C@@H]1CCCN1C(=O)[C@H](CCCNC(=N)N)NC(=O)[C@@H]1CCCN1C(=O)[C@H](C)NC(=O)CNC(=O)[C@@H]1CCCN1C(=O)[C@H](CCCCN)NC(=O)[C@H](C)NC(=O)[C@H](C)NC(=O)[C@H](CO)NC(=O)[C@@H](N)[C@@H](C)O)C(C)C)C(=O)N[C@@H](CCC(N)=O)C(=O)N1CCC[C@H]1C(=O)N1CCC[C@H]1C(=O)N[C@@H](CCCCN)C(=O)N[C@@H](CCCCN)C(=O)N1CCC[C@H]1C(=O)N[C@@H](C)C(=O)O [P1-30] (H-TSAAKPGAPRPPVPPKPGAPKPPVQPPKKPA-OH)
- Kd [14]: 554 ± 2.1 nM

Molecule: PKPPRAAPPKAPTPVPPGPASPVKKPKQAPG [scrambled version of P1-30, scrambled version of the C-terminal P1 peptide ([…])]
- binding affinity in words, fetuin [15]: No binding affinity could be detected
- KD, fetuin ([15]; fluorescent labelled host protein, 30 s, 40%, 60% and 80% MST Power): could not be assigned a KD value
- binding affinity in words, plasminogen ([14]; microscale thermophoresis): No binding affinity could be detected
- KD, plasminogen ([14]; microscale thermophoresis, fluorescent labelled host protein, 30 s, 40%, 60% and 80% MST Power): could not be assigned a KD value

B1: P1-30, synthetic C-terminal peptide of P1 adhesin (peptide)
peptide: TSAAKPGAPRPPVPPKPGAPKPPVQPPKKPA
notes: P1 adhesin (Mpn141) of M. pneumoniae, residues 1597-1627; without any tags; also called C-terminal 30 amino acids; P1 tail; source: synthetic peptide (Chempeptide Limited, China)
- Kd [16]: 2400 ± 700 nM

B2: Recombinant protein RP15 (C-terminal region of P1 adhesin) (domain or fragment)
chain: DYVLPLAITVPIVVIVLSVTLGLAIGIPMHKNKQALKAGFALSNQKVDVLTKAVGSVFKEIINRTGISQAPKRLKQTSAAKPGAPRPPVPPKPGAPKPPVQPPKKPA
notes: P1 adhesin (Mpn141) of M. pneumoniae, residues 1521-1627
- binding to panel of host molecules [1]: bind a range of host molecules in a dose dependent manner; also recorded: most consistent and most diverse binding capabilities
- binding to lactoferrin [3]: bound lactoferrin
- binding result [17]: binds
- binding result [18]: binds
- binding to laminin [5]: Only M. pneumoniae cells bound laminin
- binding to vitronectin [6]: bound lactoferrin, vitronectin
- binding to immobilised A549 cells [19]: bound immobilised A549 cells; also recorded: observed to bind immobilised A549 cells
- binding to fibronectin [8]: bound lactoferrin, vitronectin, plasminogen, fibronectin
- binding to fibronectin ([8]; listed as RP-15): bound fibronectin and fibrinogen more strongly than P1-30
- binding to fibrinogen [11]: bound lactoferrin, vitronectin, plasminogen, fibronectin, and fibrinogen
- binding to fibrinogen ([11]; listed as RP-15): bound fibronectin and fibrinogen more strongly than P1-30
- binding to plasminogen [12]: bound lactoferrin, vitronectin, plasminogen
- binding to plasminogen ([12]; listed as RP-15): bound it more strongly

B3: P1-15, synthetic C-terminal peptide of P1 adhesin with N-terminal biotin (peptide)
peptide: Biotin-PGAPKPPVQPPKKPA
notes: P1 adhesin (Mpn141) of M. pneumoniae, residues 1613-1627; also called C-terminal 15 amino acids; source: synthetic peptide (Chempeptide Limited, China)
- binding result [17]: binds

B4: rPdhB: Recombinant pyruvate dehydrogenase subunit B of M. pneumoniae (positive control) (protein, UniProt P75391 1-327, looked up)
Pyruvate dehydrogenase E1 …: MSKTIQANNIEALGNAMDLALERDPNVVLYGQDAGFEGGVFRATKGLQKKYGEERVWDCPIAEAAMAGIGVGAAIGGLKPIVEIQFSGFSFPAMFQIFTHAARIRNRSRGVYTCPIIVRMPMGGGIKALEHHSETLEAIYGQIAGLKTVMPSNPYDTKGLFLAAVESPDPVVFFEPKKLYRAFRQEIPADYYTVPIGQANLISQGNNLTIVSYGPTMFDLINMVYGGELKDKGIELIDLRTISPWDKETVFNSVKKTGRLLVVTEAAKTFTTSGEIIASVTEELFSYLKAAPQRVTGWDIVVPLARGEHYQFNLNARILEAVNQLLK
- binding to immobilised A549 cells [19]: bound immobilised A549 cells
